Laboratory results from patent US9198433B2, “Substituted benzene fungicides” (E I DU PONT DE NEMOURS AND COMPANY, priority 2007, dated 2015).
Marks after values point to notes of the source that are not given here.

Assays:
Assay type in all cases: in vivo
[1] = tested on: Erysiphe graminis f. sp. tritici; test: Test A: wheat powdery mildew, preventive spray on wheat seedlings, disease rating
Procedure, shortened: (§1)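 Preventive spray to run-off on wheat seedlings; test suspension in acetone:water 50:50 plus 250 ppm surfactant, acetone predissolution at 3% of final volume. Dose 200 ppm (≈500 g/ha) by default, 40 ppm or 50 ppm where flagged.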

[2] = tested on: Puccinia recondita f. sp. tritici; test: Test B: wheat leaf rust, preventive spray on wheat seedlings, disease rating
Procedure, shortened: as §1

Septoria nodorum = test: Test C: wheat glume blotch, preventive spray on wheat seedlings, disease rating
Procedure, shortened: as §1

Septoria tritici = test: Test D: wheat leaf blotch, preventive spray on wheat seedlings, disease rating
Procedure, shortened: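 Preventive test: one day after run-off spraying (200 ppm, equal to 500 g/ha, unless marked 40 or 50 ppm; acetone/water plus 250 ppm Trem 014), seedlings received S. tritici spore inoculum. Disease scored after 48 h at 24 °C in saturated air and 19 further days at 20 °C.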

Botrytis cinerea = test: Test F: tomato Botrytis, preventive spray on tomato seedlings, disease rating
Procedure, shortened: (§2)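 Disease ratings follow a preventive run-off spray of tomato seedlings. Compounds were first dissolved in acetone (3% of volume), then suspended in 50/50 acetone/water containing 250 ppm Trem 014. Test level 200 ppm (equivalent to 500 g/ha) except where marked * for 40 ppm or ** for 50 ppm.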

Alternaria solani = test: Test H: tomato early blight, preventive spray on tomato seedlings, disease rating
Procedure, shortened: as §2

[3] = 200 ppm, 100 = 100% disease control, 0 = no control relative to controls

Row | Structure (SMILES) | Percentage Disease Control, Test A ([1]; 40 ppm (*)) | Percentage Disease Control, Test B ([2]; 40 ppm (*)) | Percentage Disease Control, Test C (Septoria nodorum; 40 ppm (*)) | Percentage Disease Control, Test D (Septoria tritici; 40 ppm (*)) | Percentage Disease Control, Test F (Botrytis cinerea; 200 ppm) | Percentage Disease Control, Test H (Alternaria solani; 40 ppm (*)) | Percentage Disease Control, Test H (Alternaria solani; 200 ppm) | further results
1 | COC(=O)NCc1cc(-c2ccn(-c3ccc(Br)cc3)n2)ccc1Cl [Cmpd 111] | 99* % | 100* % | 100* % | 100* % | 95% | 90* % | – | –
2 | COC(=O)NCc1cc(-c2ccn(-c3nc(C(C)(C)C)ns3)n2)ccc1Cl [Cmpd 96] | 100* % | 100* % | 100* % | 100* % | 0% | – | 59% | –
3 | COC(=O)NCc1cc(-n2ccc(-c3ccc(Cl)cc3)n2)ccc1Cl [Cmpd 122] | 100* % | 100* % | 100* % | 100* % | 63% | 97* % | – | –
4 | COC(=O)NCc1cc(-c2cc(C(F)(F)F)nn2C)ccc1Cl [Cmpd 141] | – | – | – | – | – | – | – | Percentage Disease Control, Test A [1, 3]: 96%; Percentage Disease Control, Test B [2, 3]: 89%; Percentage Disease Control, Test C (Septoria nodorum; [3]): 82%; Percentage Disease Control, Test D (Septoria tritici; [3]): 98%; Percentage Disease Control, Test F (Botrytis cinerea; [3]): 0%; Percentage Disease Control, Test H (Alternaria solani; [3]): 0%
5 | COC(=O)NCc1cc(C(C)=NOC[Si](C)(C)c2ccc(F)cc2)ccc1Cl [Compound 16] | 99* % | 100* % | 100* % | 100* % | 67% | 95* % | – | –
6 | COC(=O)C(=O)c1cc(-c2ccn(-c3cccc(C(F)(F)F)c3)n2)ccc1C [Cmpd 83] | – | – | – | – | 0% | – | 0% | Percentage Disease Control, Test A ([1]; 200 ppm): 19%; Percentage Disease Control, Test B ([2]; 200 ppm): 0%; Percentage Disease Control, Test C (Septoria nodorum; 200 ppm): 0%; Percentage Disease Control, Test D (Septoria tritici; 200 ppm): 89%
7 | COC(=O)NCc1cc(-c2ccn(-c3cccc(OC(F)(F)F)c3)n2)ccc1Cl [Cmpd 68] | 97* % | 100* % | 99* % | 100* % | 0% | 86* % | – | –
8 | COC(=O)NCc1cc(-c2ccn(-c3cccc(C(F)(F)F)n3)n2)ccc1Cl [Cmpd 69] | 97* % | 92* % | 98* % | 98* % | 0% | – | 32% | –
9 | COC(=O)NCc1cc(-n2ccc(-c3cccc(Cl)c3)n2)ccc1Cl [Cmpd 123] | 98* % | 99* % | 100* % | 99* % | 63% | – | 87% | –
10 | COC(=O)NCc1cc(-c2ccnc(-c3ccccc3)n2)ccc1Cl [Cmpd 134] | – | – | – | – | – | – | – | Percentage Disease Control, Test A [1, 3]: 0%; Percentage Disease Control, Test B [2, 3]: 84%; Percentage Disease Control, Test C (Septoria nodorum; 40 ppm (*), 100 = 100% disease control, 0 = no control relative to controls): 96* %; Percentage Disease Control, Test D (Septoria tritici; [3]): 87%; Percentage Disease Control, Test F (Botrytis cinerea; [3]): 0%; Percentage Disease Control, Test H (Alternaria solani; [3]): 0%
11 | COC(=O)NCc1cc(-c2ccn(CCOc3ccccc3)n2)ccc1Cl [Cmpd 59] | 98* % | 100* % | 99* % | 97* % | – | 87* % | – | Percentage Disease Control, Test F (Botrytis cinerea; 40 ppm (*)): 0* %
12 | COC(=O)NCc1cc(-c2ccn(-c3ccc(F)c(F)c3)n2)ccc1Cl [Cmpd 118] | – | – | – | – | 40% | – | 99% | Percentage Disease Control, Test A ([1]; 200 ppm): 100%; Percentage Disease Control, Test B ([2]; 200 ppm): 100%; Percentage Disease Control, Test C (Septoria nodorum; 200 ppm): 100%; Percentage Disease Control, Test D (Septoria tritici; 200 ppm): 100%
